In brackets after ≈: the same amount, converted by molar mass.

This note sets out measurements from paper PMC12134901, “Synthesis and characterization of thymol-derived phenoxy acetamide derivatives using DFT, molecular docking, and parasitological investigations” (Frontiers in Chemistry, 2025).

For data set [1], the system named is IFN-γ. As to the kind of experiment: Serum IFN-γ in infected immunosuppressed mice (ELISA). It is filed as in vivo. To be noted: compounds 100 mg/kg/day, NTZ 250 mg/kg/day, orally 10 days, mean ± SD. The protocol:
(§1) Serum concentrations of IFN-γ, TNF-α, IL-6, and IL-10 for each group were determined using an enzyme-linked immunosorbent assay reader, following the manufacturer’s protocol.
In general terms: An ELISA detects its analyte on a solid surface through an enzyme-linked reagent.

A short description of data set [2]: Hemolytic activity assay (cytotoxicity on RBCs). To be noted: rat, washed erythrocytes (RBCs) suspended in PBS, 60 min at 37°C; for hemolysis at 60 min, 62.5 μg/mL: pH 7.4, 62.5 μg/mL; for hemolysis at 60 min, 125 μg/mL: pH 7.4, 125 μg/mL; for hemolysis at 60 min, 250 μg/mL: pH 7.4, 250 μg/mL; for hemolysis at 60 min, 500 μg/mL: pH 7.4, 500 μg/mL; for hemolysis at 60 min, 1000 μg/mL: pH 7.4, 1,000 μg/mL. The data set is classed as cell-based, rat. The protocol:
(§2) The hemolytic effect of different compounds was evaluated using an existing method. ([Diaconu et al., 2020]). One milliliter of rat blood was collected, added to a sterile, screw-top EDTA tube, and centrifuged at 3000 rpm for 20 min. The upper layer was decanted, and the erythrocytes were rinsed several times with 10 mL of cooled isotonic and sterile phosphate-buffered saline (PBS) with a pH of 7.4. The rinsed cells were re-suspended in 20 mL sterile, cold PBS. The compounds (serial dilutions of 62.5–1,000 μg/mL in DMSO) were added to the erythrocyte solution and incubated for 60 min at 37°C. After centrifugation at 3000 rpm for 10 min, the absorbance of hemoglobin in the supernatant at 540 nm was used to calculate the hemolysis rate. Triton X-100 (0.1% in PBS) was used as a positive control, and the vehicle (PBS/DMSO) was used as the negative control. The hemolysis percentage was calculated as follows: Hemolysis percentage = (Ab of sample − Ab of negative control)/(Ab of positive control–Ab of negative control) × 100.

Data set [3] deals with IL-6. As to the kind of experiment: Serum IL-6 in infected immunosuppressed mice (ELISA). The data set is classed as in vivo. The settings on record: compounds 100 mg/kg/day, NTZ 250 mg/kg/day, orally 10 days, mean ± SD. The protocol: as §1
Data set [4] relates to IL-10. The experiment in a line: Serum IL-10 in infected immunosuppressed mice (ELISA). The data set is classed as in vivo. The settings on record: compounds 100 mg/kg/day, NTZ 250 mg/kg/day, orally 10 days, mean ± SD. As for the experimental part:
as §1

Data set [5] relates to Cryptosporidium oocysts. The experiment in a line: Oocyst shedding in feces of Cryptosporidium-infected immunosuppressed mice (modified Ziehl–Neelsen stain). The data set is classed as in vivo. To be noted: compounds 100 mg/kg/day, NTZ 250 mg/kg/day, orally from 7th day post-infection for 10 days; for Shed oocysts/mg (Mean ± SD): immunosuppressed infected mice, feces 30 days post infection; for R%: reduction percent in oocyst count: vs infected non-treated G2. From the text: Cryptosporidium oocysts were obtained from the Parasitology Lab, Theodor Bilharz Research Institute, Giza, Egypt. Before infection, the oocysts were concentrated and counted in PBS using a hemocytometer. To maintain the organism cycle, five mice were inoculated with 3000–3500 oocysts using a tuberculin syringe in an intra-esophageal manner. ([Operario et al., 2015]).
Eighty healthy laboratory-bred adult male Swiss albino mice weighing 30–40 g were purchased from the animal house of the Faculty of Pharmacy, Pharos University. The animals were allowed to acclimatize for 1 week to the environmental conditions and housed in grouped plastic cages away from direct sunlight, under appropriate sanitary conditions and controlled temperature and humidity.
Immune suppression was induced and maintained throughout the experiment by administering dexamethasone (Dexazone, Al Kahira Pharmaceutical and Chemical Industries) through oral-gastric gavage at a dose of 0.25 mg/g/d for 14 consecutive days prior to inoculation with Cryptosporidium oocysts. ([Najoom et al., 2021]).
On day 15 of dexamethasone treatment, mice in the infected groups were inoculated with 10^4 Cryptosporidium oocysts using oral-gastric gavage. Before infection, oocysts were concentrated and counted in PBS using a hemocytometer.
Mice were distributed equally into eight groups of 10 each. At the end of the experiment, all animals were anesthetized for parasitological, ultrastructural, immunological, and biochemical studies. Mice grouping details are provided in the Supplementary Material.
On the final day of the experiment (30 days post infection), fresh fecal pellets from the infected mice in each group were collected to count the number of oocysts. Every sample was homogenized through suspension in double-distilled H2O. Subsequently, a fecal smear of 1 mg feces was prepared and stained using the modified Ziehl–Neelsen staining method. The stained fecal smear was examined microscopically, and the Cryptosporidium oocysts were counted. The number of oocysts per mg feces for each mouse was tabulated as the mean value for each group. All reported data represent the means of three independent trials.

Data set [6] deals with TNF-α. The experiment in a line: Serum TNF-α in infected immunosuppressed mice (ELISA). It is filed as in vivo. The settings on record: compounds 100 mg/kg/day, NTZ 250 mg/kg/day, orally 10 days, mean ± SD. The protocol:
as §1

Data set [7] has as its system RBCs. The experiment in a line: Hemolytic activity assay (cytotoxicity on RBCs). The data set is classed as cell-based, rat. To be noted: for IC50: Rattus norvegicus, read-out: IC50: sample concentration causing 50% hemolysis of RBCs, highest tested concentration 1,000 μg/mL. The protocol:
as §2

Data set [8] concerns small intestinal epithelial cells. The experiment in a line: TEM of small intestine sections of treated infected mice. The data set is classed as in vivo. The protocol:
The small intestine of each mouse was removed, cut into small pieces (1 mm^3), fixed in 2% glutaraldehyde in 0.1 M phosphate buffer, postfixed in 1% osmium tetraoxide for 2 h at 4°C, dehydrated, and embedded in Epon. Semi-thin and ultrathin sections (two samples per mouse) were prepared using an ultramicrotome. The sections were stained and analyzed using a transmission electron microscope.

For `Cc1ccc(C(C)C)c(OCC(=O)NN2C(=O)c3ccccc3C2=O)c1` [Compound 5a, N-(1,3-dioxoisoindolin-2-yl)-2-(2-isopropyl-5-methylphenoxy)acetamide], the IFN-γ in data set [1] is 477.8 ± 1.61 pg/mL. Further, in data set [2], the hemolysis at 60 min, 62.5 μg/mL was determined as 0%; the hemolysis at 60 min, 125 μg/mL was determined as 0%; the hemolysis at 60 min, 250 μg/mL was 0%; the hemolysis at 60 min, 500 μg/mL came to 0%. This molecule gave a hemolysis at 60 min, 1000 μg/mL in data set [2] of 0%. Also, in data set [3], the IL-6 was found to be 176.8 ± 0.91 pg/mL. Further, the IL-10 in data set [4] is 327.6 ± 1.34 pg/mL. Further, in data set [5], the “Shed oocysts/mg (Mean ± SD)” value stood at 13.2 ± 1.034 oocysts/mg and the “R%: reduction percent in oocyst count” value was 62%. The TNF-α in data set [6] was found to be 13.1 ± 0.99 pg/mL.
Molecule `Cc1ccc(C(C)C)c(OCC(=O)NN2C(=O)c3ccc(C(=O)O)cc3C2=O)c1` [Compound 5b, 2-(2-(2-Isopropyl-5-methylphenoxy)acetamido)-1,3-dioxoisoindoline-5-carboxylic acid] yielded an IFN-γ in data set [1] of 494.2 ± 3.15 pg/mL. In data set [2], this molecule displayed a hemolysis at 60 min, 62.5 μg/mL of 0%; a hemolysis at 60 min, 125 μg/mL of 0%; a hemolysis at 60 min, 250 μg/mL of 0%; a hemolysis at 60 min, 500 μg/mL of 0%. The molecule further gave a hemolysis at 60 min, 1000 μg/mL in data set [2] of 0%. Moreover, the IL-6 in data set [3] is given as 181.7 ± 149 pg/mL. For the same molecule, the IL-10 in data set [4] is 387.8 ± 0.78 pg/mL. Moreover, in data set [5], the “Shed oocysts/mg (Mean ± SD)” value was 14.7 ± 0.67 oocysts/mg and the “R%: reduction percent in oocyst count” value came out at 57%. Besides, the TNF-α in data set [6] is 13.7 ± 1.25 pg/mL.
In data set [1], `Cc1ccc(C(C)C)c(OCC(=O)NN2C(=O)c3cccc4cccc(c34)C2=O)c1` [Compound 7a, N-(1,3-dioxo-1H-benzo[de]isoquinolin-2(3H)-yl)-2-(2-isopropyl-5-methylphenoxy) acetamide] showed an IFN-γ of 608.8 ± 2.48 pg/mL. The same molecule returned a Hemolysis % in data set [7] (1,000 μg/mL, 60 min at 37°C) of 6.1873%. Besides, the IC50 in data set [7] amounted to 6750 µg/mL (≈ 16.8 mM). In data set [2], the hemolysis at 60 min, 62.5 μg/mL amounted to 0%; the hemolysis at 60 min, 125 μg/mL was 0%; the hemolysis at 60 min, 250 μg/mL was determined as 0%; the hemolysis at 60 min, 500 μg/mL was found to be 5.02%. Further, the hemolysis at 60 min, 1000 μg/mL in data set [2] stood at 6.18%. This molecule also registered an IL-6 in data set [3] of 237.4 ± 2.23 pg/mL. This molecule returned an IL-10 in data set [4] of 434.2 ± 1.13 pg/mL. Moreover, in data set [5], the “Shed oocysts/mg (Mean ± SD)” value was determined as 16.8 ± 0.63 oocysts/mg and the “R%: reduction percent in oocyst count” value turned out to be 51%. Also, the TNF-α in data set [6] is listed as 15.9 ± 0.87 pg/mL.
In data set [1], `Cc1ccc(C(C)C)c(OCC(=O)NN2C(=O)c3cccc4c(N)ccc(c34)C2=O)c1` [Compound 7b, N-(6-amino-1,3-dioxo-1H-benzo[de]isoquinolin-2(3H)-yl)-2-(2-isopropyl-5-methylphenoxy)acetamide] registered an IFN-γ of 415.2 ± 2.57 pg/mL. In data set [2], this molecule came in with a hemolysis at 60 min, 62.5 μg/mL of 0%; a hemolysis at 60 min, 125 μg/mL of 0%; a hemolysis at 60 min, 250 μg/mL of 0%; a hemolysis at 60 min, 500 μg/mL of 0%. The same molecule had a hemolysis at 60 min, 1000 μg/mL in data set [2] of 0%. Besides, the “TEM ultrastructure of small intestine sections” value in data set [8] was “healthy microvilli (slightly disfigured and disarranged)”. The molecule further showed an IL-6 in data set [3] of 143.1 ± 1.1 pg/mL. This molecule showed an IL-10 in data set [4] of 277.2 ± 1.47 pg/mL. In addition, in data set [5], the “Shed oocysts/mg (Mean ± SD)” value came out at 11.5 ± 0.85 oocysts/mg and the “R%: reduction percent in oocyst count” value was 67%. Also, in data set [6], the TNF-α is on record as 11.8 ± 1.03 pg/mL.
Molecule `Cc1ccc(C(C)C)c(OCC(=O)Nn2c(=O)c3cc4c(=O)n(NC(=O)COc5cc(C)ccc5C(C)C)c(=O)c4cc3c2=O)c1` [Compound 9, N,N'-(1,3,5,7-tetraoxopyrrolo[3,4-f]isoindole-2,6(1H,3H,5H,7H)-diyl)bis(2-(2-isopropyl-5-methylphenoxy)acetamide)] had an IFN-γ in data set [1] of 534.2 ± 1.26 pg/mL. In addition, the IC50 in data set [7] turned out to be 1560 µg/mL (≈ 2.48 mM). In data set [2], this molecule had a hemolysis at 60 min, 62.5 μg/mL of 0%; a hemolysis at 60 min, 125 μg/mL of 0%; a hemolysis at 60 min, 250 μg/mL of 0%; a hemolysis at 60 min, 500 μg/mL of 0%. Also, the hemolysis at 60 min, 1000 μg/mL in data set [2] amounted to 35%. In addition, the IL-6 in data set [3] worked out at 215.7 ± 1.15 pg/mL. Further, in data set [4], the IL-10 was 416.8 ± 0.63 pg/mL. Also, in data set [5], the “Shed oocysts/mg (Mean ± SD)” value is given as 15.4 ± 0.52 oocysts/mg and the “R%: reduction percent in oocyst count” value is listed as 55%. The TNF-α in data set [6] came out at 16.2 ± 1.03 pg/mL.
`CC(=O)Oc1ccccc1C(=O)Nc1ncc([N+](=O)[O-])s1` [NTZ, nitazoxanide, reference compound]: the IFN-γ in data set [1] turned out to be 422.1 ± 3.21 pg/mL. Also, the “TEM ultrastructure of small intestine sections” value in data set [8] was “normal ultrastructure and regularly arranged apical microvilli with oval euchromatic nuclei”. Also, in data set [5], the “Shed oocysts/mg (Mean ± SD)” value was found to be 10.4 ± 0.51 oocysts/mg and the “R%: reduction percent in oocyst count” value amounted to 70%. The molecule also had a TNF-α in data set [6] of 7.8 ± 0.91 pg/mL.
